What all share (experiment): NCI anticancer screen, dose series, 48 h
Test [1] has as its system NCI-H226 lung.
Test [2] deals with OVCAR-5 ovarian.
Test [3] deals with EKVX NSCLC.
Test [4] deals with A549 NSCLC.
Test [5] has as its system HOP-92 NSCLC.
Test [6] deals with SF-539 CNS.
For test [7], the system named is SF-295 CNS.
The subject of test [8] is MDA-MB-231 breast.
In test [9] the test system is OVCAR-3 ovarian.
Test [10] relates to UACC-257 melanoma.

Where “and” joins values, the source holds several entries; their conditions need not be identical. Equal entries are not always repeated.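 The compound was tested at five concentrations on cells cultured in 96-well plates, with a 48-hour exposure period. GI50: concentration for 50% inhibition of growth. TGI is the concentration that stops growth completely.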

As to `Clc1cc(Cl)c(OCC#CI)cc1Cl`, the GI50 in [1] is 19.3 µM; in [2], 13.7 µM; in test [3], 14 µM; in test [4], 16.8 µM; in test [5], 15.1 µM; in test [6], 2.94 µM. Further, the GI50 is 10.4 µM in test [7], 13.5 µM in test [8], 1.85 µM in test [9] and 2.79 µM in test [10]. Besides, the TGI turned out to be 40.8 µM in test [1]; 27.2 µM in test [2]; 30.2 µM in test [3]; 31.4 µM in test [4]; 37.1 µM in test [5]; 12.8 µM in test [6]. The TGI in [7] turned out to be 23.7 µM; in test [8] it was 28 µM; in test [9], 3.91 µM; in test [10], 11.9 µM.
For the compound `COc1ccc(-c2n[nH]nc2-c2cc(OC)c3c(c2OC)OCO3)cc1`, the GI50 in [1] was 9.69 µM; in [2], 4.68 µM; in [3], 2.8 µM; in [4], 0.7 µM; in test [5] it was 0.685 µM; in [6], 1.32 µM. Moreover, the GI50 was 0.658 µM in [7], 1.71 µM in test [8], 0.378 µM in test [9] and 2.8 µM in test [10]. Further, the TGI is more than 92.6 µM in test [1]; more than 100 µM in test [2]; 39.7 µM in [3]; more than 58.8 µM in [4]; 22.6 µM in test [5]; 5.4 µM in test [6]. Further, the TGI in [7] was 5.67 µM; in test [8] it was 17.4 µM; in [9] it was 2.71 µM; in test [10], more than 100 µM.
With `Cc1ccc(-c2cc(-c3ccc(C)cc3)nc(NCCNc3ccnc4cc(Cl)ccc34)n2)cc1`, the GI50 is 1.8 µM in test [1]; 1.65 µM in [2]; 1.69 µM in [3]; 1.74 µM in test [4]; 1.23 µM in test [5]; 1.91 µM in test [6]. The GI50 in test [7] is 1.8 µM; in test [8] it was 1.88 µM; in test [9], 1.66 µM; in test [10] it was 1.98 µM. The TGI in test [1] came to 4.18 µM; in [2], 3.07 µM; in test [3], 3.52 µM; in test [4], 3.53 µM; in [5], 2.73 µM; in [6] it was 3.6 µM. The TGI in [7] came to 3.49 µM; in test [8], 3.67 µM; in test [9] it was 3.15 µM; in test [10] it was 4.07 µM.
`Cc1cc(N/N=C/c2nc(-c3ccc(Br)cc3)oc2C)c2cc(Cl)ccc2n1`: the GI50 in test [1], in test [2], in test [3], in test [4], in test [5] and in test [6] was more than 100 µM in each case. Moreover, the GI50 in test [7], in test [8], in [9] and in test [10] was more than 100 µM in each case. For the same compound, the TGI in test [1], in test [2], in [3], in test [4], in test [5] and in test [6] was more than 100 µM in each case. Also, the TGI in test [7], in test [8], in test [9] and in test [10] was more than 100 µM each time.
Regarding `CCCCCCCCCCCCCCCCCC(=O)OCC(COC1OC(COP(=O)(O)O)C(O)C(O)C1O)OC(=O)CCCCCCCCCCCCCCCCC` (configuration not stated), the TGI in test [1] was determined as 13.3 µM; in test [2], 11.4 µM; in [3], 16.4 µM; in test [4], 16 µM; in [5], 10.5 µM; in test [6] it was 18.1 µM. Besides, the TGI in test [7] is 10.6 µM; in test [8], 9.24 µM; in test [9], 16 µM; in test [10], 16.6 µM.
Take `O=C(c1ccccc1)C(CN1CCOCC1)c1ccccc1` (configuration not stated): the GI50 in [1] is 2.79 µM; in [2] it was 2.65 µM; in test [3], 3.32 µM; in [4] it was 3.94 µM; in test [5] it was 1.33 µM; in test [6] it was 2.11 µM. Besides, the GI50 in [7] was 2.67 µM; in test [8], 1.83 µM; in [9], 0.465 µM; in test [10], 1.37 µM. Besides, the TGI came to 9.33 µM in test [1]; 5.3 µM in test [2]; 16.9 µM in test [3]; 14.9 µM in test [4]; 2.87 µM in test [5]; 4.47 µM in test [6]. Moreover, the TGI in test [7] stood at 10.4 µM; in [8], 5.05 µM; in [9], 1.66 µM; in test [10], 3.13 µM.
Take `CS(=O)(=O)c1ccc(C(=O)Nc2ccc(Cl)c(-c3ccccn3)c2)c(Cl)c1`: the TGI in [1] is > 100 µM and 26.5 µM; in test [2], > 100 µM and 94.6 µM; in test [3] it was > 100 µM and 14.9 µM; in test [4], > 100 µM and 21.2 µM; in test [5] it was > 100 µM and 10.7 µM; in [6], > 100 µM and 13.7 µM. For the same compound, the TGI in test [8] was > 96.2 µM and 15.7 µM.
For the compound `N#C/C(=C\c1c(-c2ccccc2)[nH]c2ccccc12)S(=O)(=O)c1ccccc1`, the GI50 in [1] was 4.06 µM; in test [2], 18.2 µM; in test [3], 5.49 µM; in test [4], 3.74 µM; in [5], 8.88 µM; in [6], 2.48 µM. Besides, the GI50 in test [7] is 2.21 µM; in test [8] it was 3.55 µM; in [9], 1.14 µM; in [10] it was 17.9 µM. Also, the TGI in [1] is 37.8 µM; in [2] it was 98.1 µM; in [3] it was more than 64.8 µM; in test [4] it was more than 100 µM; in test [5], 69.8 µM; in test [6] it was 9.51 µM. Also, the TGI was 14.6 µM in test [7], 33.7 µM in test [8], 4.41 µM in test [9] and 56.2 µM in test [10].

These data come from PubChem BioAssay (NCI).
